{
  "source": "paper PMC10989010",
  "about": "“A panel of janus kinase inhibitors identified with anti-inflammatory effects protect mice from lethal influenza virus infection” (Antimicrobial Agents and Chemotherapy, 2024)",
  "key": {"[1]": {"system": "neutrophils and macrophages", "test": "Flow cytometry of BALF cells of infected mice", "type": "in vivo", "conditions": "20 mg/kg/d, day 7 p.i.", "experimental": "The mouse was euthanized and affixed onto a surgical plate, followed by disinfection of the neck using 70% ethanol. An incision was made on the neck skin using scissors to expose the trachea. Subsequently, a 0.2 cm incision was created on the trachea with surgical scissors, and a gavage needle was carefully inserted into it. The trachea was tied around the needle using cotton thread to secure the needle in place. Then, sterile PBS solution loaded in a 1 mL syringe was gently injected into the lung. The thorax of the mouse was massaged to facilitate even distribution of the solution before careful aspiration. Following the removal of the syringe from the needle, lavage fluid obtained from this process was transferred to an ice-cooled 1.5 mL tube for further processing or stored at −80℃ for subsequent analysis. Finally, resuspension and staining of cell pellet obtained after centrifugation of lavage fluid for 10 minutes at 1,000 × g and 4℃ were performed for subsequent analysis using flow cytometry ([45]).\nBALF samples were washed with FACS (fluorescence-activated cell sorting) buffer (2% BSA in PBS), followed by red blood cell lysis using Red Cell Lysis Buffer (Tiangen, Beijing, China). For the surface staining, cells were stained with the following fluorochrome-labeled antibodies (Biolegend, San Diego, USA): PE-Cy7-conjugated Ly6C (clone HK1.4, dilution 1:200), PE-conjugated CD11b (clone M1/70, dilution 1: 200), APC-conjugated Ly6G (clone 1A8, dilution 1: 200), and FITC-conjugated CD11c (clone N418, dilution 1: 100). Cells were washed with PBS twice and counterstained with 7AAD (Biolegend, San Diego, USA) to differentiate apoptotic and dead cells, then analyzed using a BD FACSVerse Cell Analyzer (BD, New Jersey, USA)."}, "[2]": {"system": "lung tissues", "test": "Lung tissues histopathology (HE staining) of infected mice", "type": "in vivo", "conditions": "300 TCID50; 20 mg/kg/d; day 7 p.i.", "experimental": "The H&E staining experiments were performed according to the previous report ([46]). Briefly, all the mouse lung tissues were fixed in 4% paraformaldehyde overnight, embedded in paraffin, and cut into 4 µm sections. The sections were stained with hematoxylin solution, treated with hematoxylin differentiation solution and hematoxylin Scott’s tap water bluing, and rinsed with tap water. The sections were dehydrated in 85% ethanol for 5 minutes, followed by 5 minutes in 95% ethanol, and stained with eosin dye for 5 minutes. After dehydration, all the sections were sealed with neutral gum. Each section was examined under the microscope. The slides were randomly read and reviewed for tissue damage, necrosis, and inflammatory cell infiltration."}, "[3]": {"system": "influenza virus-specific IgG", "test": "Influenza virus-specific IgG in mouse serum (ELISA)", "type": "in vivo, BALB/c mice", "conditions": "50 TCID50 PR8, 20 mg/kg twice daily for 5 days from 3 dpi, versus untreated", "experimental": "The PR8 virus was purified and inactivated using β-Propiolactone (CAS: 57–57-8, MCE) at a 1:3,000 (vol/vol) ratio. The inactivated PR8 virus (2 µg in each well) was then coated onto a 96-well ELISA plate (Corning, USA) and left overnight at 4℃. Afterward, the plate was washed three times and blocked with 5% skimmed milk for 1 hour at 37℃. The plate was washed again three times and then incubated with 100 µL of serial diluted sera at 37 ℃ for 2 hours. Next, the plate was washed three times and incubated with 100 µL of 1,000-fold diluted (horseradish peroxidase) HRP-conjugated affinipure goat ant-mouse IgG (H + L; SA00001-1, Proteintech) at 37℃ for 1 hour. After washing the plate four times, 100 µL of TMB (3, 3', 5, 5'-tetramethylbenzidine) substrate was added to each well until the solutions turned blue, and then 50 µL of 2M H2SO4 was added to stop the reaction. Finally, the absorbance was read at OD450 nm using the Varioskan LUX multimode microplate reader (Thermo Scientific, Waltham, MA, USA) ([47])."}},
  "note": "Structures can show the parent of a compound that is named as a salt.",
  "data": [
    {"smiles": "CNS(=O)(=O)C[C@H]1CC[C@H](N(C)c2ncnc3[nH]ccc23)CC1", "note": "[Oclacitinib maleate]", "values": [
      {"measurement": "number of neutrophils and macrophages in the lungs", "setting": "[1]; BALF flow cytometry, versus placebo", "value": "reduce the number of neutrophils and macrophages"},
      {"measurement": "Ly6G- (flow cytometry gate, BALF)", "setting": "[1]; Fig 4B, 300 TCID50", "value": 81.6},
      {"measurement": "Macrophage (flow cytometry gate, BALF)", "setting": "[1]; Fig 4B, 300 TCID50", "value": 8.05},
      {"measurement": "Neurophil (flow cytometry gate, BALF)", "setting": "[1]; Fig 4B, 300 TCID50", "value": 15.2},
      {"measurement": "lung histopathology (HE staining)", "setting": "[2]", "value": "remained primarily intact, with fewer inflammatory cells present"},
      {"measurement": "serum influenza virus-specific IgG production", "setting": "[3]; 7 dpi", "value": "significantly suppressed"},
      {"measurement": "serum influenza virus-specific IgG production", "setting": "[3]; 14 and 21 dpi", "value": "slight suppression"}
    ]}
  ]
}
